Source: patent US4173647A, “4-Spectinomycylamine and salts thereof” (Boehringer Ingelheim GmbH, priority 1977, dated 1979)
Values after ≈ are worked out from the molar mass of the structure shown.

Key:
[1] = tested on: Escherichia coli ATCC 9637; assay: series-dilution assay in the microtiter system, bacteriostasis; type: cell-based; conditions: ATCC9637, pH 6.7, read-out: Minimum inhibiting concentration
Description: (§1) 4-R-Spectinomycylamine of the formula I was tested in comparison with the known antibiotic spectinomycin with regard to its effectiveness against Staphylococcus aureus SG 511, Streptococcus aronson, Escherichia coli ATCC 9637, Pseudomonas aeruginosa, Serratia marcescens ATCC 13 880, Klebsiella pneumoniae ATCC 10 031, Proteus mirabilis and Proteus vulgaris, and with regard to acute toxicity.
(§2) For these tests the method of the series-dilution essay in the microtiter system was used. The substances were tested in a fluid medium with regard to bacteriostasis. The effectiveness of the bacteriostasis was tested at the following concentrations: 80, 40, 20, 10, 5, 2.5, 1.25, 0.6 and 0.3 μgm/ml. A bouillon consisting of 5 gm of peptone, 3 gm of meat extract, filled up to a volume of 1000 ml with distilled water served as nutriant; pH-value 6.7. The age of the primary cultures was 24 hours. The adjustment of the microorganism suspension was carried out with a photometer (according to Eppendorf) (diameter of the test tube 14 mm, filter 546 nm) by comparison with the turbidity of a barium sulfate comparison suspension produced by a suspension of barium sulfate which was prepared by addition of 3.0 ml of 1% barium chloride solution on 97 ml of 1% sulfuric acid. After the adjustment streptococcus aronson was diluted 1:150 and the remaining test microorganisms were further diluted with sodium chloride solution in the proportion of 1:1500.
(§3) 16 mgm of the test substance was weighed in 10 ml measuring flasks and filled up with the solvent until the mark was reached. The further dilution series was prepared with distilled water or with the respective solvent.
(§4) 0.2 ml of nutrient medium, 0.01 ml of the corresponding test substance dilution and 1 drop of the microorganism suspension were placed into the cavities of the microtiter plates and incubated for 18 to 20 hours at 37° C. A solvent control batch was always treated in like manner at the same time.
(§5) The reading was effected macroscopically, whereby the respective threshold concentration (=lowest still bacteriostatically effective concentration) was determined.

[2] = tested on: Klebsiella pneumoniae ATCC 10 031; assay: as above; type: cell-based; conditions: ATCC10, 18 to 20 hours at 37° C., pH 6.7, lowest still bacteriostatically effective concentration, read-out: Minimum inhibiting concentration
Description: as §1, §2, §3, §4, §5

Proteus mirabilis = assay: as above; type: cell-based; conditions: 18 to 20 hours at 37° C., pH 6.7, lowest still bacteriostatically effective concentration, read-out: Minimum inhibiting concentration
Description: as §1, §2, §3, §4, §5

Proteus vulgaris = assay: as above; type: cell-based; conditions: 18 to 20 hours at 37° C., pH 6.7, lowest still bacteriostatically effective concentration, read-out: Minimum inhibiting concentration
Description: as §1, §2, §3, §4, §5

Pseudomonas aeruginosa = assay: as above; type: cell-based; conditions: pH 6.7, read-out: Minimum inhibiting concentration
Description: as §1, §2, §3, §4, §5

[3] = tested on: Serratia marcescens ATCC 13 880; assay: as above; type: cell-based; conditions: ATCC13, pH 6.7, read-out: Minimum inhibiting concentration
Description: as §1, §2, §3, §4, §5

[4] = tested on: Staphylococcus aureus SG 511; assay: as above; type: cell-based; conditions: SG511, 18 to 20 hours at 37° C., pH 6.7, lowest still bacteriostatically effective concentration, read-out: Minimum inhibiting concentration
Description: as §1, §2, §3, §4, §5

Streptococcus aronson = assay: as above; type: cell-based; conditions: 18 to 20 hours at 37° C., pH 6.7, lowest still bacteriostatically effective concentration, read-out: Minimum inhibiting concentration
Description: as §1, §2, §3, §4, §5

[5] = antimicrobial activity (general statement, in vitro and in warm-blooded animals such as mice)

| Compound | MIC [1] [µg/mL] | MIC [2] [µg/mL] | MIC (Proteus mirabilis) [µg/mL] | MIC (Proteus vulgaris) [µg/mL] | MIC (Pseudomonas aeruginosa) [µg/mL] | MIC [3] [µg/mL] | MIC [4] [µg/mL] | MIC (Streptococcus aronson) [µg/mL] | antimicrobial properties (in words) [5] |
| --- | --- | --- | --- | --- | --- | --- | --- | --- | --- |
| CNC1C(O)C(NC)C2OC3(O)C(N)CC(C)OC3OC2C1O (centres unmarked) [4-R-Spectinomycylamine] | 20 (≈ 60 µM) | 10 (≈ 30 µM) | 10 (≈ 30 µM) | 5 (≈ 15 µM) | 40 (≈ 120 µM) | 10 (≈ 30 µM) | 5 (≈ 15 µM) | 5 (≈ 15 µM) | especially pronounced |
| CN[C@@H]1[C@H](O)[C@H](NC)[C@H]2O[C@@]3(O)C(=O)C[C@@H](C)O[C@H]3O[C@@H]2[C@H]1O [Spectinomycin, spectinomycin, reference compound] | 40 (≈ 120 µM) | 20 (≈ 60.2 µM) | 10 (≈ 30.1 µM) | 10 (≈ 30.1 µM) | 160 (≈ 481 µM) | 20 (≈ 60.2 µM) | 20 (≈ 60.2 µM) | 10 (≈ 30.1 µM) | – |
